The subject of one data set is hepatitis B virus. The data set can be described thus: Antiviral action on hepatitis B virus in HepG2.2.15 cells (HBV DNA dot-blot hybridization). The note with it: 192 h, 8 days treatment, intra- or extracellular hepatitis B-specific DNA band reduced by 50% compared with untreated sample. Type of data set: cell-based. The procedure: The antiviral action of the compounds of the invention on hepatitis B virus was investigated by methods based on those described by M. A. Sells et al., Proc. Natl. Acad. Sci. 84, 1005–1009 (1987) and B. E. Korba et al., Antiviral Research 19, 55–70 (1992).
The antiviral tests were carried out in 96-well microtiter plates. The first vertical row of the plate received only growth medium and HepG2.2.15 cells. It served as virus control.
Stock solutions of the test compounds (50 mM) were initially dissolved in DMSO, and further dilutions were prepared in the HepG2.2.15 growth medium. The compounds according to the invention were usually pipetted in a test concentration of 100 μM (1st test concentration) in each case into the second vertical test row of the microtiter plate and subsequently diluted in twofold steps 2^10 times in growth medium plus 2% by weight of fetal calf serum (volume 25 μl).
Each well of the microtiter plate then contained 225 μl of HepG2.2.15 cell suspension (5×10^4 cells/ml) in growth medium plus 2% by weight of fetal calf serum. The test mixture was incubated at 37° C. and 5% CO2 (v/v) for 4 days.
The supernatant was then aspirated off and discarded, and the wells received 225 μl of freshly prepared growth medium. The compounds according to the invention were each added anew as 10-fold concentrated solution in a volume of 25 μl. The mixtures were incubated for a further 4 days.
The supernatant and/or cells were then harvested and sucked by means of a vacuum onto 96-well dot-blot chambers covered with a nylon membrane (in accordance with the manufacturer's information).
After the supernatants or lysed cells had been transferred to the nylon membrane of the blot apparatus (see above), the intra- or extracellular supernatants of the HepG2.2.15 cells were denatured (1.5 M NaCl/0.5 N NaOH), neutralized (3 M NaCl/0.5 M Tris HCl, pH 7.5) and washed (2×SSC). The DNA was then baked onto the membrane by incubating the filters at 120° C. for 2–4 hours.
Detection of the viral DNA from the treated HepG2.2.15 cells on the nylon filters was usually carried out with nonradioactive, digoxigenin-labeled hepatitis B-specific DNA probes, each of which was labeled with digoxigenin, purified and employed for the hybridization in accordance with the manufacturer's information.
The prehybridization and hybridization took place in 5×SSC, 1× blocking reagent, 0.1% by weight N-lauroylsarcosine, 0.02% by weight SDS and 100 μg of herring sperm DNA. The prehybridization took place at 60° C. for 30 minutes, and the specific hybridization with 20 to 40 ng/ml of the digoxigenized, denatured HBV-specific DNA (14 hours, 60° C.). The filters were then washed.
The immunological detection of the digoxigenin-labeled DNA took place in accordance with the manufacturer's information:
The filters were washed and prehybridized in a blocking reagent (in accordance with the manufacturer's information). Hybridization was then carried out with an anti-DIG antibody coupled to alkaline phosphatase for 30 minutes. After a washing step, the substrate of alkaline phosphatase, CSPD, was added, incubated with the filters for 5 minutes, then packed in plastic film and incubated at 37° C. for a further 15 minutes. The chemiluminescence of the hepatitis B-specific DNA signals was visualized by exposing the filters to an X-ray film (incubation depending on signal strength: 10 minutes to 2 hours).
The half-maximum inhibitory concentration (IC50, 50% inhibitory concentration) was determined as the concentration at which the intra- or extracellular hepatitis B-specific band was reduced by the compound according to the invention by 50% compared with an untreated sample.

The next data set relates to HepG2.2.15 cells. The data set can be described thus: Cytotoxicity determination in HepG2.2.15 cells. The note with it: 50% of the cells show a morphology comparable to the cell control. The class given is cell-based. An excerpt: Before harvesting the supernatants to determine the antiviral effect, the HepG2.2.15 cells were examined under the light microscope or by means of biochemical detection methods (for example Alamar Blue stain or Trypan Blue stain) for cytotoxic changes.
Substance-induced cytotoxic or cytostatic changes in the HepG2.2.15 cells were detected, for example, under the light microscope as changes in cell morphology. Such substance-induced changes in the HepG2.2.15 cells compared with untreated cells were visible, for example, as cytolysis, vacuolation or altered cell morphology. […]
No cytotoxic changes were detectable at concentrations >10 μM of the compounds of the invention.

Molecules are shown by their SMILES.

For `COC(=O)C1=C(CN2CCCC2)NC(c2ncc(F)cc2F)=NC1c1ccc(F)cc1Br` (stereo not drawn), the melting point is 161 to 162 °C.
With `COC(=O)C1=C(CN2CCOCC2)NC(c2ncc(F)cc2F)=NC1c1ccc(Cl)cc1Cl` (stereo not drawn), the melting point fell in the range of 225 to 227 °C.
Same read-out and setting: as for `COC(=O)C1=C(CN2CCCC2)NC(c2ncc(F)cc2F)=NC1c1ccc(Cl)cc1Cl` (stereo not drawn), the figure is 168 to 170 °C; as for `COC(=O)C1=C(CN2CCSC2)NC(c2ncc(F)cc2F)=NC1c1ccc(Cl)cc1Cl` (stereo not drawn), 189 to 191 °C; as for `CCN(C)CC1=C(C(=O)OC)C(c2ccc(Cl)cc2Cl)N=C(c2ncc(F)cc2F)N1` (stereo not drawn), 142 to 143 °C.
Compound `COC(=O)C1=C(CN2CCSCC2)NC(c2ncccc2F)=NC1c1ccc(F)cc1Br` (stereo not drawn) came in with a melting point of 128 to 131 °C.
`COC(=O)C1=C(CN2CCSC2)NC(c2ncccc2F)=NC1c1ccc(Cl)cc1Cl` (stereo not drawn) yielded a melting point of 175 °C.
With `COC(=O)C1=C(CN2CCSCC2)NC(c2ncccc2F)=NC1c1ccc(Cl)cc1Cl` (stereo not drawn), the melting point stood at 137 °C.
In turn, `COC(=O)C1=C(CN2CCSC2)NC(c2ncccc2F)=NC1c1ccc(F)cc1Br` (stereo not drawn) displayed a melting point of 172 to 173 °C.
The same measure, in the same setting: then `COC(=O)C1=C(CN(CCO)CCO)NC(c2ncccc2F)=NC1c1ccc(Cl)cc1Cl` (stereo not drawn), with 155 °C; and `COC(=O)C1=C(CN2CCSC2)NC(c2ncc(F)cc2F)=NC1c1ccc(F)cc1Br` (stereo not drawn), with 183 to 184 °C; and `COC(=O)C1=C(CN2CCSCC2)NC(c2ncc(F)cc2F)=NC1c1ccc(F)cc1Br` (stereo not drawn), with 173 to 174 °C.
`COC(=O)C1=C(CN(CCO)CCO)NC(c2ncc(F)cc2F)=NC1c1ccc(Cl)cc1Cl` (stereo not drawn): the melting point was 144 to 145 °C.
In the case of `COC(=O)C1=C(CN(C)CCO)NC(c2ncc(F)cc2F)=NC1c1ccc(F)cc1Br` (stereo not drawn), the melting point lay in the range of 114 to 116 °C.
In the case of `COC(=O)C1=C(CN(C)CCO)NC(c2ncccc2F)=NC1c1ccc(F)cc1Cl` (stereo not drawn), the melting point lay in the range of 117 to 119 °C.
Regarding `COC(=O)C1=C(CN2CCSCC2)NC(c2ncccc2F)=NC1c1ccc(F)cc1Cl` (stereo not drawn), the melting point came out at 145 °C.
`COC(=O)C1=C(CN2CCSC2)NC(c2ncccc2F)=NC1c1ccc(F)cc1Cl` (stereo not drawn): the melting point lay in the range of 163 to 164 °C.
In the case of `COC(=O)C1=C(CN(CCO)CCO)NC(c2ncccc2F)=NC1c1ccc(F)cc1Cl` (stereo not drawn), the melting point was in the range of 119 to 120 °C.
`COC(=O)C1=C(CN(CCO)Cc2ccccc2)NC(c2ncccc2F)=NC1c1ccc(F)cc1Br` (stereo not drawn) showed a melting point of 121 °C.
As to `COC(=O)C1=C(CN(CCO)Cc2ccccc2)NC(c2ncc(F)cc2F)=NC1c1ccc(F)cc1Br` (stereo not drawn), the melting point amounted to 135 °C.
For the compound `COC(=O)C1=C(CN(CCO)Cc2ccccc2)NC(c2ncccc2F)=NC1c1ccc(F)cc1Cl` (stereo not drawn), the melting point stood at 128 °C.
With `COC(=O)C1=C(CN2CCSC2)NC(c2nccs2)=NC1c1ccc(Cl)cc1Cl` (stereo not drawn), the melting point was 169 to 170 °C.
`COC(=O)C1=C(CN(CCO)CCO)NC(c2nccs2)=NC1c1ccc(Cl)cc1Cl` (stereo not drawn) had a melting point of 133 °C.
As for `COC(=O)C1=C(CN(C)CCO)NC(c2nccs2)=NC1c1ccc(Cl)cc1Cl` (stereo not drawn), the melting point was 132 °C.
In turn, `COC(=O)C1=C(Cn2ccnc2)NC(c2ncc(F)cc2F)=NC1c1ccc(F)cc1Br` (stereo not drawn) registered a melting point of 123 to 126 °C.
For the compound `COC(=O)C1=C(CN2CCCCC2)NC(c2ncccc2F)=NC1c1ccc(Cl)cc1Cl` (stereo not drawn), the melting point fell in the range of 155 to 156 °C.
In turn, `COC(=O)C1=C(CCN2CCSC2)NC(c2ncc(F)cc2F)=NC1c1ccc(F)cc1Cl` (stereo not drawn) [Example 2, Methyl 4-(2-chloro-4-fluorophenyl)-2-(3,5-difluoro-2-pyridyl)-6-[2-(1,3-thiazolidin-3-yl)-ethyl]-1,4-dihydropyrimidine-5-carboxylate] had a concentration for half-maximal inhibition (IC50) in the data set with hepatitis B virus of 0.4 µM. In the data set on HepG2.2.15 cells, the Tox50 is 38 µM.
In turn, `COC(=O)C1=C(CN2CCOCC2)NC(c2ncc(F)cc2F)=N[C@H]1c1ccc(F)cc1Cl` [Example 5] yielded a melting point of 178 °C. The compound further showed an IC50 in the data set with hepatitis B virus of 0.002 µM. Further, the Tox50 in the data set with HepG2.2.15 cells was found to be 40 µM.
Compound `COC(=O)C1=C(CN2CCOCC2)NC(c2ncccc2F)=NC1c1ccc(Cl)cc1Cl` (stereo not drawn) [Example 7] yielded a melting point of 182 to 183 °C. In the data set with hepatitis B virus, this compound displayed an IC50 of 0.025 µM. This compound also displayed a Tox50 with HepG2.2.15 cells of 25 µM.
`COC(=O)C1=C(CN2CCOCC2)NC(c2ncc(F)cc2F)=NC1c1ccc(F)cc1Br` (stereo not drawn) [Example 9]: the melting point lay within 216 to 218 °C. The same compound returned an IC50 with hepatitis B virus of 0.007 µM. The Tox50 with HepG2.2.15 cells amounted to 17 µM.
For `COC(=O)C1=C(CN2CCSCC2)NC(c2ncc(F)cc2F)=N[C@H]1c1ccc(F)cc1Cl` [Example 11], half-maximal inhibition in the data set with hepatitis B virus (IC50) was put at 0.04 µM. The same compound displayed a Tox50 with HepG2.2.15 cells above 8 µM.
Take `COC(=O)C1=C(CN2CCSCC2)NC(c2ncc(F)cc2F)=NC1c1ccc(Cl)cc1Cl` (stereo not drawn) [Example 15]: the melting point was in the range of 166 to 168 °C. The compound also displayed an IC50 in the data set with hepatitis B virus of 0.05 µM. Moreover, in the data set on HepG2.2.15 cells, the Tox50 worked out at 3 µM.
Turning to `COC(=O)C1=C(CN2CCOCC2)NC(c2ncccc2F)=NC1c1ccc(F)cc1Br` (stereo not drawn) [Example 24], the melting point is 156 to 158 °C. The same compound displayed an IC50 in the data set with hepatitis B virus of 0.02 µM. This compound also gave a Tox50 with HepG2.2.15 cells of 80 µM.
For the compound `COC(=O)C1=C(CN2CCOCC2)NC(c2ncc(F)cc2F)=N[C@H]1c1ccc(F)cc1Br` [Example 31], the melting point was 189 to 190 °C. This compound came in with an IC50 with hepatitis B virus of 0.002 µM. In the data set with HepG2.2.15 cells, this compound had a Tox50 of 63 µM.
For `COC(=O)C1=C(CN2CCOCC2)NC(c2ncccc2F)=NC1c1ccc(F)cc1Cl` (stereo not drawn) [Example 34], the melting point lay in the range of 161 to 163 °C. This compound also yielded a concentration for half-maximal inhibition (IC50) in the data set on hepatitis B virus of 0.009 µM. This compound had a Tox50 with HepG2.2.15 cells of 60 µM.
Compound `COC(=O)C1=C(CN2CCOCC2)NC(c2nccs2)=NC1c1ccc(Cl)cc1Cl` (stereo not drawn) [Example 45] registered a melting point of 149 °C. Further, the IC50 in the data set with hepatitis B virus was found to be 0.002 µM. In the data set with HepG2.2.15 cells, this compound yielded a Tox50 of 34 µM.

A word on the melting point: it is the temperature of the solid-liquid transition. In general, IC50 refers to the point on the concentration scale where inhibition reaches its midpoint. Lower therefore signals higher potency.

The values above are taken from patent US7074784B2, “Medicaments against viral diseases” (priority 2000, dated 2006).
